According to patent US20230219965A1 (KSQ Therapeutics, Inc., priority 2020, published 2023):
Read-outs that look alike come from different tables or passages of the source.

What was measured:
[1] = Liver microsomal metabolic stability, human liver microsomes (HLM); conditions: for half-life at 1 μM: human, liver microsomes
[2] = ADME solubility determination in PBS at pH 2.0 and pH 7.4; format: physicochemical; conditions: for solubility at 24 h: phosphate buffered saline, 25 °C, thermodynamic from solid
Outline: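 Dried 10 mM DMSO stock residues taken up in PBS pH 7.4 or pH 2.0, shaken 24 h at 25° C. After centrifugation, supernatant quantified by LC-MS/MS against a standard of known concentration, with a dilution factor applied.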

[3] = system: Ub-PCNA levels in the nucleus of ES2 cells (USP1 activity); experiment: ES2 Ub-PCNA immunofluorescence (IF) assay; format: cell-based; conditions: ES2 cells, 3 hours, Ub-PCNA immunofluorescence, read-out: USP1 IC50 (Ub-PCNA)
Outline: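 Cells plated overnight, then compound-treated for 3 h at 37° C (0.3% DMSO final), methanol-fixed and stained with anti-Ub-PCNA plus DAPI. Per-nucleus Ub-PCNA intensity imaged; cells above the 95% cutoff of untreated wells counted as positive, and percent positive cells used to derive AC50.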

USP1/UAF1 enzyme = USP1/UAF1 enzyme (Homo sapiens, UniProt O94782); experiment: USP1/UAF1 deubiquitination assay (ubiquitin-rhodamine 110 substrate); format: biochemical; conditions: read-out: USP1 IC50 (Ub-Rho)
Outline: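 0.05 nM USP1/UAF1 was preincubated 10 min with compounds (dose response from 10 μM) in 50 mM Tris-HCl pH 7.8, 0.5 mM EDTA, 0.01% BSA, 1 mM DTT, 0.01% Tween-20. 150 nM ubiquitin-rhodamine 110 started the reaction, read kinetically 30 min at Ex480/Em540; IC50 by four-parameter fit versus no-enzyme and DMSO controls.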

[4] = Liver microsomal metabolic stability, rat liver microsomes (RLM); conditions: 1 μM compound, 1 mg/mL microsomes, NADPH; for half-life at 1 μM: rat, liver microsomes, t1/2 (min) in RLM
Procedure: Samples were prepared by adding 222.5 μL of a master solution (100 mM phosphate buffer and 1 mg/mL liver microsomes (HLM or RLM)) and 25 μL of a 10 mM NADPH solution to incubation plates, which were then warmed for 10 min. Each compound was separately dissolved in DMSO to prepare 10 mM stock solutions, which were then diluted to 100 μM with acetonitrile. A reaction was started by adding 2.5 μL of the 100 μM solution of each compound to separate incubation plates such that the final concentration of for each compound in each plate was 1 μM.
25 μL aliquots of each sample were taken at 0.5, 5, 10, 15, 20 and 30 minutes, and the reaction was stopped by adding 5 volumes of cold acetonitrile with IS (100 nM alprazolam, 200 nM caffeine and 100 nM tolbutamide). The samples were then centrifuged at 3,220 G for 30 minutes, and 100 μL of the supernatant fluid was mixed with 100 μL of ultra-pure H2O.
The samples were then analyzed by LC-MS/MS. Peak areas were determined from extracted ion chromatograms. Slope values (k) were determined by linear regression of the natural logarithm of the remaining percentage of the compound vs. incubation time curve. The in vitro half-life (in vitro t1/2) was determined from the slope value using the following equation:

[5] = pH 2, aqueous buffer, PBS pH 2.0, 25° C., read-out: Solubility at pH 2.0
[6] = pH 7.4, aqueous buffer, PBS pH 7.4, 25° C., read-out: Solubility at pH 7.4

USP1/UAF1 enzyme, sequence (O94782 whole entry): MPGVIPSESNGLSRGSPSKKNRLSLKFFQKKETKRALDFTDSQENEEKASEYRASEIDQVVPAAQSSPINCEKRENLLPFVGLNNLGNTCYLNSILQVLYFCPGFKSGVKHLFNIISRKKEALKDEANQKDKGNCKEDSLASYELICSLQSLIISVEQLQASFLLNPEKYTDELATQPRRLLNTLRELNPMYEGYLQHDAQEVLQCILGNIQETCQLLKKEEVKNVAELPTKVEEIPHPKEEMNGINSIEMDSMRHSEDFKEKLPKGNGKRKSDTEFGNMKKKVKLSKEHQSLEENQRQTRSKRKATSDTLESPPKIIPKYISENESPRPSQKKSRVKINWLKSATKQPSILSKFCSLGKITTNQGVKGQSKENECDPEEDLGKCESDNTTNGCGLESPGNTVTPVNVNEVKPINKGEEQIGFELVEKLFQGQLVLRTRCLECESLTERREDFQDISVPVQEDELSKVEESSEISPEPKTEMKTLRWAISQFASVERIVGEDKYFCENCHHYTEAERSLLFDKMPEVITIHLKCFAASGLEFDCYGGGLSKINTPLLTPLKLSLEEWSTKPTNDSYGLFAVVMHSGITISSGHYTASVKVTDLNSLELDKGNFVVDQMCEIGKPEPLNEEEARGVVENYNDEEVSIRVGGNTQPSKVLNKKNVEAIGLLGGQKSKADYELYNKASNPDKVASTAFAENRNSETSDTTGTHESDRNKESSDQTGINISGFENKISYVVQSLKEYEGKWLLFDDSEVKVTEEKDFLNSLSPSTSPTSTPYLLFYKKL
USP1/UAF1 enzyme, sequence (Q8TAF3 whole entry partner): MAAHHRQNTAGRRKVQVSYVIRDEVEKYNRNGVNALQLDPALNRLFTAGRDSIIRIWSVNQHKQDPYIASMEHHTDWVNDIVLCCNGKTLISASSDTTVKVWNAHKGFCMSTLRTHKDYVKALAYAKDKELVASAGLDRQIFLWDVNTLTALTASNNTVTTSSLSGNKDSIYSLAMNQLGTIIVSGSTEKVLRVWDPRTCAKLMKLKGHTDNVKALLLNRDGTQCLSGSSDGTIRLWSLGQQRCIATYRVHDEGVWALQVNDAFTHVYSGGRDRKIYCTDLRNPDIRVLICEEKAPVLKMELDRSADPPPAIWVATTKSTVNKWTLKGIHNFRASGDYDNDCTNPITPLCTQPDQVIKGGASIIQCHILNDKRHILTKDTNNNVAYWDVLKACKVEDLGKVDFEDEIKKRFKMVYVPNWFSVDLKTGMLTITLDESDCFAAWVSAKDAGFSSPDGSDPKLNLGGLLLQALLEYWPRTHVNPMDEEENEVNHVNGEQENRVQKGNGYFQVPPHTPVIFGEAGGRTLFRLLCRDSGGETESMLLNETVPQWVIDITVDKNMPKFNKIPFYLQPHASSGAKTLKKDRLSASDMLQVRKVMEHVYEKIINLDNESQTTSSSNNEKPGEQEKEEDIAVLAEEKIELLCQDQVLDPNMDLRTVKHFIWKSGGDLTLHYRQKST

half-life at 1 μM [1] | solubility at 24 h [2, 5] | solubility at 24 h [2, 6] | IC50 ([3]; Homo sapiens, ES-2) | IC50 (USP1/UAF1 enzyme) | half-life at 1 μM [4] | t1/2 (min) in HLM ([1]; human liver microsomes, 1 μM compound, 1 mg/mL microsomes, NADPH) | Solubility at pH 2.0 (μM) ([2]; PBS pH 2.0, 25° C., 24 hours) | Solubility at pH 7.4 (μM) ([2]; PBS pH 7.4, 25° C., 24 hours) | IC50 [3] | t1/2 (min) in RLM [4] | Compound
> 25 min | ≥ 10 µM | < 10 µM | < 100 nM | < 100 nM | > 25 min | – | – | – | – | – | CCn1cc(C(F)(F)F)nc1-c1ccc(NC2CCCn3nc(-c4c(OC)ncnc4C4CC4)cc32)cc1 (stereo not drawn) [Example 240, 2-(4-cyclopropyl-6-methoxypyrimidin-5-yl)-N-(4-(1-ethyl-4-(trifluoromethyl)-1H-imidazol-2-yl)phenyl)-4,5,6,7-tetrahydropyrazolo[1,5-a]pyridin-4-amine]
> 25 min | < 10 µM | < 10 µM | 100 to 500 nM | < 100 nM | > 25 min | – | – | – | – | – | CCn1cc(C(F)(F)F)nc1-c1ccc(NC2CCCn3nc(-c4c(Cl)cnn4C(C)C)cc32)cc1F (stereo not drawn) [Example 241, 2-(4-chloro-1-isopropyl-1H-pyrazol-5-yl)-N-(4-(1-ethyl-4-(trifluoromethyl)-1H-imidazol-2-yl)-3-fluorophenyl)-4,5,6,7-tetrahydropyrazolo[1,5-a]pyridin-4-amine]
> 25 min | < 10 µM | < 10 µM | < 100 nM | < 100 nM | > 25 min | – | – | – | – | – | Cc1cc(C(F)(F)F)nn1-c1ccc(NC2CCCn3nc(-c4c(Cl)cnn4C(C)C)cc32)cc1 (stereo not drawn) [Example 244, 2-(4-chloro-1-isopropyl-1H-pyrazol-5-yl)-N-(4-(5-methyl-3-(trifluoromethyl)-1H-pyrazol-1-yl)phenyl)-4,5,6,7-tetrahydropyrazolo[1,5-a]pyridin-4-amine]
> 25 min | < 10 µM | < 10 µM | 100 to 500 nM | < 100 nM | > 25 min | – | – | – | – | – | CCn1cc(C(F)(F)F)nc1-c1ccc(NC2CCCn3nc(-c4c(Cl)cnn4C(C)C)cc32)cn1 (stereo not drawn) [Example 245, 2-(4-chloro-1-isopropyl-1H-pyrazol-5-yl)-N-(6-(1-ethyl-4-(trifluoromethyl)-1H-imidazol-2-yl)pyridin-3-yl)-4,5,6,7-tetrahydropyrazolo[1,5-a]pyridin-4-amine]
> 25 min | ≥ 10 µM | < 10 µM | 100 to 500 nM | < 100 nM | > 25 min | – | – | – | – | – | CCn1cc(C(F)(F)F)nc1-c1ccc(NC2CCCn3nc(-c4c(Cl)cnn4C(C)C)cc32)cc1OC (stereo not drawn) [Example 246, 2-(4-chloro-1-isopropyl-1H-pyrazol-5-yl)-N-(4-(1-ethyl-4-(trifluoromethyl)-1H-imidazol-2-yl)-3-methoxyphenyl)-4,5,6,7-tetrahydropyrazolo[1,5-a]pyridin-4-amine]
< 25 min | < 10 µM | < 10 µM | 100 to 500 nM | < 100 nM | < 25 min | – | – | – | – | – | CCn1cc(C#N)nc1-c1ccc(NC2CCCn3nc(-c4c(Cl)cnn4C(C)C)cc32)cc1 (stereo not drawn) [Example 247, 2-(4-((2-(4-chloro-1-isopropyl-1H-pyrazol-5-yl)-4,5,6,7-tetrahydropyrazolo[1,5-a]pyridin-4-yl)amino)phenyl)-1-ethyl-1H-imidazole-4-carbonitrile]
> 25 min | ≥ 10 µM | ≥ 10 µM | < 100 nM | < 100 nM | > 25 min | – | – | – | – | – | COc1ncnc(C2CC2)c1-c1cc2n(n1)CCCC2Nc1ccc(-c2nc(C(F)(F)F)cn2C(C)CF)cc1 (stereo not drawn) [Example 248, 2-(4-cyclopropyl-6-methoxypyrimidin-5-yl)-N-(4-(1-(1-fluoropropan-2-yl)-4-(trifluoromethyl)-1H-imidazol-2-yl)phenyl)-4,5,6,7-tetrahydropyrazolo[1,5-a]pyridin-4-amine]
> 25 min | < 10 µM | < 10 µM | < 100 nM | < 100 nM | > 25 min | – | – | – | – | – | CC(CF)n1cc(C(F)(F)F)nc1-c1ccc(NC2CCCn3nc(-c4c(OC(F)F)ncnc4C4CC4)cc32)cc1 (stereo not drawn) [Example 249, 2-(4-cyclopropyl-6-(difluoromethoxy)pyrimidin-5-yl)-N-(4-(1-(1-fluoropropan-2-yl)-4-(trifluoromethyl)-1H-imidazol-2-yl)phenyl)-4,5,6,7-tetrahydropyrazolo[1,5-a]pyridin-4-amine]
> 25 min | < 10 µM | < 10 µM | < 100 nM | < 100 nM | > 25 min | – | – | – | – | – | CCn1cc(C(F)(F)F)nc1-c1ccc(NC2CCCn3nc(-c4c(OC(F)F)ncnc4C4CC4)cc32)cc1 (stereo not drawn) [Example 250, 2-(4-cyclopropyl-6-(difluoromethoxy)pyrimidin-5-yl)-N-(4-(1-ethyl-4-(trifluoromethyl)-1H-imidazol-2-yl)phenyl)-4,5,6,7-tetrahydropyrazolo[1,5-a]pyridin-4-amine]
> 25 min | < 10 µM | < 10 µM | 100 to 500 nM | < 100 nM | < 25 min | – | – | – | – | – | CCn1cc(C(F)(F)F)nc1-c1ccc(NC2CCCn3nc(-c4c(Cl)cnn4C(C)C)cc32)cc1C#N (stereo not drawn) [Example 255, 5-((2-(4-chloro-1-isopropyl-1H-pyrazol-5-yl)-4,5,6,7-tetrahydropyrazolo[1,5-a]pyridin-4-yl)amino)-2-(1-ethyl-4-(trifluoromethyl)-1H-imidazol-2-yl)benzonitrile]
< 25 min | < 10 µM | < 10 µM | 100 to 500 nM | < 100 nM | < 25 min | – | – | – | – | – | CCn1cc(C(F)(F)F)nc1-c1ccc(N(C)C2CCCn3nc(-c4c(Cl)cnn4C(C)C)cc32)cc1 (stereo not drawn) [Example 258, 2-(4-chloro-1-isopropyl-1H-pyrazol-5-yl)-N-(4-(1-ethyl-4-(trifluoromethyl)-1H-imidazol-2-yl)phenyl)-N-methyl-4,5,6,7-tetrahydropyrazolo[1,5-α]pyridin-4-amine]
> 25 min | < 10 µM | < 10 µM | < 100 nM | < 100 nM | > 25 min | – | – | – | – | – | CCn1cc(C(F)(F)F)nc1-c1ccc(OC2CCCn3nc(-c4c(Cl)cnn4C(C)C)cc32)cc1 (stereo not drawn) [Example 261, 2-(4-chloro-1-isopropyl-1H-pyrazol-5-yl)-4-(4-(1-ethyl-4-(trifluoromethyl)-1H-imidazol-2-yl)phenoxy)-4,5,6,7-tetrahydropyrazolo[1,5-α]pyridine]
> 25 min | < 10 µM | < 10 µM | 100 to 500 nM | < 100 nM | > 25 min | – | – | – | – | – | CCn1cc(C(F)(F)F)nc1-c1ccc(OC2CCCn3nc(-c4c(Cl)cnn4C(C)C)cc32)cc1F (stereo not drawn) [Example 262]
< 25 min | < 10 µM | < 10 µM | 100 to 500 nM | < 100 nM | < 25 min | – | – | – | – | – | CCn1cc(C(F)(F)F)nc1-c1ccc(CC2OCCn3nc(-c4c(Cl)cnn4C(C)C)cc32)cc1 (stereo not drawn) [Example 265, 2-(4-chloro-1-isopropyl-1H-pyrazol-5-yl)-4-(4-(1-ethyl-4-(trifluoromethyl)-1H-imidazol-2-yl)benzyl)-6,7-dihydro-4H-pyrazolo[5,1-c][1,4]oxazine]
> 25 min | < 10 µM | < 10 µM | 100 to 500 nM | < 100 nM | > 25 min | – | – | – | – | – | CCn1cc(C(F)(F)F)nc1-c1ccc(NC2CCCn3nc(-c4c(C#N)cnn4C(C)C)cc32)cc1F (stereo not drawn) [Example 266, 5-(4-((4-(1-ethyl-4-(trifluoromethyl)-1H-imidazol-2-yl)-3-fluorophenyl)amino)-4,5,6,7-tetrahydropyrazolo[1,5-α]pyridin-2-yl)-1-isopropyl-1H-pyrazole-4-carbonitrile]
– | – | – | – | < 100 nM | – | + (“+” indicates less than 25 minutes) | + (“+” indicates less than 10 μM) | + (“+” indicates less than 10 μM) | < 100 nM | + (“+” indicates less than 25 minutes) | CCn1cc(C(F)(F)F)nc1-c1ccc(CN2CC(O)Cn3nc(-c4c(Cl)cnn4C(C)C)cc32)cc1F (stereo not drawn) [Example 267, 2-(4-chloro-1-isopropyl-1H-pyrazol-5-yl)-4-(4-(1-ethyl-4-(trifluoromethyl)-1H-imidazol-2-yl)-3-fluorobenzyl)-4,5,6,7-tetrahydropyrazolo[1,5-α]pyrimidin-6-ol]
